Here are results for one compound from patent publication US20240091203A1, “METHODS FOR TREATING NON-OBSTRUCTIVE HYPERTROPHIC CARDIOMYOPATHY” (Cytokinetics, Incorporated, priority 2022, published 2024).

Entries after “also recorded” stand apart in the source; their conditions may differ.

This data set in a line: Phase 1 plasma pharmacokinetics, CYP2D6 poor metabolizer cohort. The format is in vivo, human. To be noted: single 10 mg. Here is the method: CYP2D6 poor metabolizer cohort.
CYP2D6 genotypes were determined at screening for all study participants; those identified as CYP2D6-PMs were excluded from the SAD and MAD cohorts but were invited to participate in the CYP2D6-PM cohort. The first individual in the CYP2D6-PM cohort was dosed after the SAD 25-mg cohort (FIG. 2). […] Nine participants were randomized (7:2) with a sentinel dosing group consisting of the first 2 participants treated.
Pharmacokinetic analyses. For all study groups, blood samples for PK assessment were obtained pre-dose, up to 12 times daily on day 1, and then at regular intervals throughout the study. Blood samples were collected according to the following schedule: SAD Cohorts: Day 1: pre-dose and 0.25, 0.5, 1, 1.5, 2, 2.5, 3, 4, 6, 8, 12, 16, 24, 36, 48, 72, 96, and 216 h post dose. MAD Cohorts (14-day Dosing): Day 1: pre-dose and 0.25, 0.5, 1, 1.5, 2, 2.5, 3, 4, 6, 8, and 12 h post dose; Days 2, 4, 5, 6, and 9: pre-dose (corresponding to trough samples following dosing on days 1, 3, 4, 5, and 8) and 1.5 h post dose; Days 3, 7, 8, 10, 11, 12, and 13: pre-dose (corresponding to trough samples following dosing on days 2, 6, 7, 9, 10, 11, and 12); Day 14: pre-dose and 0.25, 0.5, 1.5, 2, 2.5, 3, 4, 6, 8, 12, 16, 24, 36, 48, 72, and 168 h post dose. MAD Cohort (17-Day Dosing): Day 1: pre-dose and 0.25, 0.5, 1, 1.5, 2, 2.5, 3, 4, 6, 8, and 12 h post dose; Days 2, 4, 5, 6, and 9: pre-dose (corresponding to trough samples following dosing on days 1, 3, 4, 5, and 8) and 1.5 h post dose; Days 3, 7, 8, 10, 11, 12, 13, 14, 15, and 16: pre-dose (corresponding to trough samples following dosing on days 2, 6, 7, 9, 10, 11, and 12); Day 17: pre-dose and 0.25, 0.5, 1.5, 2, 2.5, 3, 5, 7, 9, 12, 24, 36, 48, 72, and 168 h post dose. CYPD6-PM Cohort: Day 1: pre-dose and 0.25, 0.5, 1, 1.5, 2, 2.5, 3, 4, 6, 8, 12, 16, 24, 36, 48, 72, 96, 216, 312, and 552 h post dose. Food-Effect Cohort: Day 1: pre-dose and 0.25, 0.5, 1, 1.5, 2, 2.5, 3, 4, 6, 8, 12, 16, 24, 36, 48, 72, 96, 144, and 216 h post dose. Standard non-compartmental methods were used to calculate PK parameters using Phoenix® WinNonlin® Version 7.0; actual sample collection times were utilized.

Where [1] appears, read: CYP2D6 poor metabolizers, geometric mean, n = 7.
The mark [2] stands for this setting: CYP2D6 poor metabolizers, mean ± SD, n = 7.

In general, Cmax refers to the maximum level reached in the sampled fluid or tissue. Usually CL/F stands for the apparent clearance, not corrected for the fraction that reaches the circulation.

Under setting [1], `CCc1nc(-c2ccc3c(c2)CC[C@H]3NC(=O)c2cnn(C)c2)no1` [aficamten, (R)—N-(5-(5-ethyl-1,2,4-oxadiazol-3-yl)-2,3-dihydro-1H-inden-1-yl)-1-methyl-1H-pyrazole-4-carboxamide] returned an AUC24 of 495 ng·h/mL, an AUCinf of 2966 ng·h/mL and a Cmax of 57.3 ng/mL. In addition, under setting [2], the CL/F is 3.6 ± 1.4 L/h and the t1/2 stood at 110 h. Further, under “versus extensive metabolizers”, the “impact of CYP2D6-PM phenotype on pharmacokinetics” value is listed as “Neither food nor CYP2D6-PM phenotype had a clinically meaningful impact; also recorded: did not appear to have reduced clearance”.
